Test results reported in patent US12421254B2, “KRAS modulators and uses thereof” (Quanta Therapeutics, Inc., priority 2023, dated 2025).

Key:
phospho-ERK in AGS cells = assay: pERK In Cell Western (ICW) assay (Method B), AGS; format: cell-based; conditions: Homo sapiens, Table 2, 3 hours
Summary of the method: (§1)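 In-cell western read-out: phospho-ERK (800 nm) normalized to DRAQ5 (700 nm) per well, expressed as percent of blank control, IC50 from 4-parameter variable-slope fit. Compounds were applied as ½-log 9-point series for 3 h at 37 °C to cells plated the previous day.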

NRAS/RAF1 = target: T1, NRAS/RAF1 (Homo sapiens, UniProt P01111); assay: Protein-protein interaction (PPI) HTRF assay w.t. NRAS/RAF1; format: binding; conditions: Table 3; wt NRAS/RAF1
T1 construct: (1-169); His6-SUMO (N, cleaved yes)
T1 sequence (P01111 with tags, fused parts or gaps): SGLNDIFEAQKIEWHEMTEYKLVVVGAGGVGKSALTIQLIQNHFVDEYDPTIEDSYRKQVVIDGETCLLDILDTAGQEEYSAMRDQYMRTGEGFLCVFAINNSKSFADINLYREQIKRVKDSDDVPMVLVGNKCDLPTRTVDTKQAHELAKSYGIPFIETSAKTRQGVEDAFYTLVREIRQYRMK
Procedure: (§2) When RAS proteins are in the active GTP-bound conformation, they bind the effector protein RAF1 at the N-terminus Ras-binding domain (RBD, residues 52-131) (Tran, et al., 2021). Homogenous time resolved fluorescence (HTRF) was used to monitor the interaction between wt or mutant KRAS and RAF1 or wt NRAS and RAF1. Compounds were assayed in the presence of KRAS G12D/V and RAF1 versus wt KRAS to assess activity against mutant and w.t. KRAS. Similarly, compounds were then assayed in the presence of w.t. NRAS and RAF1 to assess RAS isoform selectivity. In all assay formats, His-tagged RAF1 protein was incubated with the HTRF donor, anti-6His Tb Cryptate gold (Cisbio 61DB10RDF), and biotinylated RAS proteins were incubated with the HTRF acceptor, streptavidin-d2 (CisBio 610SADLA). The intensity of the fluorescence signal emitted is proportional to binding between the two proteins. The donor solution was prepared by mixing 16 nM His-tagged RAF1 in protein dilution buffer with 1:100 anti-6His Tb cryptate in PPI-Terbium detection buffer. 16 nM biotinylated RAS protein was diluted into protein dilution buffer (50 mM Tris-HCl pH 7.5, 150 mM NaCl, 0.1 mM MgCl2, 1 mM TCEP, 0.005% Tween20) and mixed with 1:2000 Streptavidin-d2 diluted in PPI-Terbium detection buffer (CisBio 61DB10RDF). 50× compound in DMSO was mixed with 16 nM KRAS-acceptor solution and incubated for 30 minutes at room temperature. After compound pre-incubation with KRAS, the RAF1 donor solution was added to the KRAS-acceptor solution and incubated for 1 hour at room temperature. The fluorescence signal emitted was monitored at 665 nm and 615 nm using an Envision multimode plate reader. The HTRF ratio (665/615) was calculated and normalized to 0% inhibition in the absence of compound and 100% inhibition in the presence of untagged RAF1 protein. PPI KRAS G12D/RAF1, KRAS G12V/RAF1, w.t. KRAS/RAF1 and NRAS/RAF1 IC50 (uM) values of selected compounds are depicted in Table 3 and Table 4 with compounds having a value <0.1 uM as ++++; ≥0.1 uM to 1 uM as +++; ≥1 uM to 10 uM as ++; ≥10 uM to 100 uM as +; and ≥100 uM as NA.

KRAS G12V/RAF1 = target: T2, KRAS G12V/RAF1 (Homo sapiens, UniProt P01116, G12V); assay: Protein-protein interaction (PPI) HTRF assay KRAS G12V/RAF1; format: binding; conditions: Table 3
T2 construct: KRAS (1-169) proteins were expressed in BL21 (DE3)-CodonPlus E. coli; His6-MBP (N, cleaved yes)
T2 sequence (P01116 with tags, fused parts or gaps isoform P01116-2 G12V): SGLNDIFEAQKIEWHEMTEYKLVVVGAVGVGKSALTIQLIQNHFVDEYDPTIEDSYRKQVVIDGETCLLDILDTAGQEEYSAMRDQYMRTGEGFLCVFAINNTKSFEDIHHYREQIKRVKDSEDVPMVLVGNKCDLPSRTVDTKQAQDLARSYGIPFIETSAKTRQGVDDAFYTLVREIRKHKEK

KRAS G12D/RAF1 = target: T3, KRAS G12D/RAF1 (Homo sapiens, UniProt P01116, G12D); assay: Protein-protein interaction (PPI) HTRF assay KRAS G12D/RAF1; format: binding; conditions: Table 2
T3 construct: KRAS (1-169) proteins were expressed in BL21 (DE3)-CodonPlus E. coli; His6-MBP (N, cleaved yes)
T3 sequence (P01116 with tags, fused parts or gaps isoform P01116-2 G12D): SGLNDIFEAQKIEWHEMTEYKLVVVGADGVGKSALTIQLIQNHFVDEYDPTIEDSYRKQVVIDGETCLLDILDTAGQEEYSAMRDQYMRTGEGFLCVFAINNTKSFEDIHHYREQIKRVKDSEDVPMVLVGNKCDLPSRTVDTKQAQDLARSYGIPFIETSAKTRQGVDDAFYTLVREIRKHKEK

w.t. KRAS/RAF1 = target: T4, w.t. KRAS/RAF1 (Homo sapiens, UniProt P01116); assay: Protein-protein interaction (PPI) HTRF assay w.t. KRAS/RAF1; format: binding; conditions: Table 3; wt KRAS/RAF1
T4 construct: KRAS (1-169) proteins were expressed in BL21 (DE3)-CodonPlus E. coli; His6-MBP (N, cleaved yes)
T4 sequence (P01116 with tags, fused parts or gaps isoform P01116-2): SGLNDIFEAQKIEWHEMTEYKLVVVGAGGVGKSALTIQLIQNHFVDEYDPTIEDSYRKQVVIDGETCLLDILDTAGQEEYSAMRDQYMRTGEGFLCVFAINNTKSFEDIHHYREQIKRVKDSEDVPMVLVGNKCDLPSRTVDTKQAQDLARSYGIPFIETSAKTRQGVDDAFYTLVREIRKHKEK
Procedure: as §2

[1] = system: phospho-ERK in SW620 (KRAS-G12V) cells; assay: pERK In Cell Western (ICW) assay (Method B), SW620; format: cell-based; conditions: Homo sapiens, SW-620, 3 h, Table 4
Summary of the method: as §1

SMILES | IC50 (phospho-ERK in AGS cells) | IC50 (NRAS/RAF1) | IC50 (KRAS G12V/RAF1) | IC50 (KRAS G12D/RAF1) | IC50 (w.t. KRAS/RAF1) | IC50 [1]
N#Cc1c(N)sc2c1C1(CC2)CN(c2nc(OCC3(CN4CCOCC4)CC3)nc(N3C[C@H]4CC[C@@H](C3)N4)n2)C1 [Compound 2, 2-amino-1′-[4-[[1-(morpholinomethyl)cyclopropyl]methoxy]-6-[(1R,5S)-3,8-diazabicyclo[3.2.1]octan-3-yl]-1,3,5-triazin-2-yl]spiro[5,6-dihydrocyclopenta[b]thiophene-4,3′-azetidine]-3-carbonitrile] | 0.1 to 1 µM | > 100 µM | 1 to 10 µM | 1 to 10 µM | 1 to 10 µM | 
N#Cc1c(N)sc2c1C1(CC2)CN(c2nc(OCC34CCCN3CC(F)C4)nc(N3CC4CCC(C3)N4)n2)C1 [Compound 1, 2-amino-1′-[4-(3,8-diazabicyclo[3.2.1]octan-3-yl)-6-[[(2R,8S)-2-fluoro-1,2,3,5,6,7-hexahydropyrrolizin-8-yl]methoxy]-1,3,5-triazin-2-yl]spiro[5,6-dihydrocyclopenta[b]thiophene-4,3′-azetidine]-3-carbonitrile] | 0.1 to 1 µM | > 100 µM | 0.1 to 1 µM | 0.1 to 1 µM | 1 to 10 µM | 
N#Cc1c(N)sc2c1C1(CC2)CN(c2nc(OC[C@@]34CCCN3C[C@H](F)C4)nc(N3CCCC(C#N)C3)n2)C1 (stereo partly drawn) [Compound 13, 2-amino-1′-[4-(3-cyano-1-piperidyl)-6-[[(2R,8S)-2-fluoro-1,2,3,5,6,7-hexahydropyrrolizin-8-yl]methoxy]-1,3,5-triazin-2-yl]spiro[5,6-dihydrocyclopenta[b]thiophene-4,3′-azetidine]-3-carbonitrile] | 1 to 10 µM |  | 1 to 10 µM | 1 to 10 µM | 1 to 10 µM | 100 to 1000 nM
N#Cc1c(N)sc2c1C1(CCC2)CN(c2nc(OCC3(CN4CCOCC4)CC3)nc(N3C[C@H]4CC[C@@H](C3)N4)n2)C1 [Compound 3, 2-amino-1′-[4-[(1R,5S)-3,8-diazabicyclo[3.2.1]octan-3-yl]-6-[[1-(morpholinomethyl)cyclopropyl]methoxy]-1,3,5-triazin-2-yl]spiro[6,7-dihydro-5H-benzothiophene-4,3′-azetidine]-3-carbonitrile] | 0.1 to 1 µM | > 100 µM | 10 to 100 µM | 1 to 10 µM | 1 to 10 µM | 
N#Cc1c(N)sc2c1C1(CC2)CN(c2nc(OCC3(CN4CCOCC4)CC3)nc(N3CCCC4(C3)NC(=O)NC4=O)n2)C1 (stereo not shown) [Compound 7, 2-amino-1′-[4-(2,4-dioxo-1,3,9-triazaspiro[4.5]decan-9-yl)-6-[[1-(morpholinomethyl)cyclopropyl]methoxy]-1,3,5-triazin-2-yl]spiro[5,6-dihydrocyclopenta[b]thiophene-4,3′-azetidine]-3-carbonitrile] |  | > 100 µM | 0.1 to 1 µM | 0.1 to 1 µM | 0.1 to 1 µM | 1000 to 20000 nM
C[C@@]1(O)CCCN(c2nc(OC[C@@]34CCCN3C[C@H](F)C4)nc(N3CC4(CCc5sc(N)c(C#N)c54)C3)n2)C1 [Compound 10, 2-amino-1′-[4-[[(2R,8S)-2-fluoro-1,2,3,5,6,7-hexahydropyrrolizin-8-yl]methoxy]-6-[(3R)-3-hydroxy-3-methyl-1-piperidyl]-1,3,5-triazin-2-yl]spiro[5,6-dihydrocyclopenta[b]thiophene-4,3′-azetidine]-3-carbonitrile] | 0.1 to 1 µM | > 100 µM | 1 to 10 µM | 1 to 10 µM | 1 to 10 µM | 100 to 1000 nM
